# Results from patent publication US20250115941A1, “Exposure device for exposing microorganisms to gaseous pollutants and detection system thereof” (priority 2023, published 2025).
# Where a name gives a salt, the structure may show the parent alone.
# How the values were obtained:
# Vibrio fischeri [1] = test: Acute toxicity of gaseous VOCs to hydrogel-microsphere-fixed Vibrio fischeri in exposure chamber (luminescence change); type: cell-based; conditions: for IC50: Aliivibrio fischeri; for IC50 (15 min) Ratio: liquid IC50 / gaseous IC50, 15 min; for IC50 (30 min) Ratio: liquid IC50 / gaseous IC50, 30 min; for IC50 (45 min) Ratio: liquid IC50 / gaseous IC50, 45 min; for IC50 (60 min) Ratio: liquid IC50 / gaseous IC50, 60 min; for minimum detection limit: no pre-concentration
# Experimental: A method for using the exposure device for exposing microorganisms to gaseous pollutants provided in the present application includes steps as follows: • (1) preparing the hydrogel microspheres with microorganisms: culturing microorganisms in a culture medium dissolved with 1.5% of sodium alginate for 3 h to 4 h, and after OD600 is greater than 0.1, uniformly dripping the microorganisms into a 1.5% calcium chloride solution through a peristaltic pump at a rate of 1.5 ml/min to obtain the hydrogel microspheres with microorganisms; taking out and placing the hydrogel microspheres in a culture medium for use; • (2) sequentially loading the hydrogel microspheres fixed with microorganisms in the multi-well exposure tray according to a detection requirement, and detecting an initial intensity of fluorescent signals of the hydrogel microspheres fixed with microorganisms; • (3) fixing the multi-well exposure tray to a lower end of the vertical pipe of the T-shaped air flow-mixing pipe through threads, and connecting the pressurizing air outlet pipe to the T-shaped air flow-mixing pipe, wherein silicone seal gaskets are mounted at all threaded connections to ensure leakproofness of the exposure device; • (4) placing the exposure device in an in-situ multi-toxicity endpoint detection system for VOCs or an in-situ multi-toxicity endpoint detection system for atmospheric particulate matter to make the gaseous pollutants enter the exposure device through the first and second depressurizing air inlet pipes at a flow rate ranging from 0.3 L/min to 2.0 L/min; and • (5) continuously introducing the gaseous pollutants for 15 min to 60 min, and then introducing clean air for 8 min to 10 min to completely replace the gaseous pollutants in the detection system; removing the multi-well exposure tray, and sequentially placing the hydrogel microspheres in the multi-well exposure tray into a 96 well plate, and detecting a final intensity of fluorescent signals of the hydrogel microspheres fixed with microorganisms in the plurality of channels by using a microplate reader to obtain an intensity change of fluorescent signals.
# A commercial VOCs generator is used to accurately generate seven different VOCs with nine gradient concentrations, involving aldehydes (formaldehyde and acetaldehyde), pyridines (pyridine), alcohols (n-butyl alcohol), acyls and ketones (acetylacetone), benzenes, and phenols (phenol). Natural luminescent bacteria Vibrio fischeri as a target, is fixed by using hydrogel microspheres, and is arranged in an exposure chamber. VOCs are sequentially introduced into the exposure chamber at a flow rate of 0.5 L/min. After exposure for 15 min, 30 min, 45 min, and 60 min, Vibrio fischeri is taken out, and intensity change of fluorescent signals of Vibrio fischeri are measured by using a microplate reader. Concentration-acute toxicity curves of the gaseous pollutant comprising different VOCs and mixed VOCs are fitted by using analysis software, to obtain the IC50 value of acute toxicity of the gaseous pollutants.
# Vibrio fischeri [2] = test: Acute toxicity exposure experiments of VOCs in a liquid state (conventional method); type: cell-based; conditions: for IC50: Aliivibrio fischeri
# Vibrio fischeri [3] = conditions: concentration ratio 10 times
# Source text: (1) According to a detection requirement in this embodiment, the quantity of the multi-well exposure tray that need to be loaded is 1, and only one type of the hydrogel microspheres fixed with natural fluorescent microorganisms Vibrio fischeri is provided, and the quantity of hydrogel microspheres fixed with microorganisms that need to be used is 60. An initial fluorescence intensity of each hydrogel microsphere is detected and recorded, and the hydrogel microspheres are placed in the multi-well exposure tray, the multi-well exposure tray is loaded into the exposure device, and the detection system is sealed. […]
# (4) The system-controlled vacuum pump at the distal end of the detection system and the vacuum pump of the gas circulation device are turned on, and the concentrated VOCs is introduced into the exposure device at 0.5 L/min, wherein exposure is set to last 15 min, 30 min, 45 min, and 60 min; and stability of the flowmeter of the gas circulation device and the system-controlled flowmeter at the distal end of the detection system during the process is monitored.
# (5) After exposure to VOCs is completed, a microplate reader is used to measure final fluorescence intensity of each hydrogel microsphere, and changes of the initial fluorescence intensity and the final fluorescence intensity are obtained.
# [4] = system: recombined Escherichia coli carrying plasmids with different gene pathway; test: Genotoxicity of gaseous dimethyl sulfate with the in-situ multi-toxicity endpoint detection system for VOCs (Embodiment 1); conditions: exposure 20-500 mg/m^3, 15 min, 0.5 L/min
# Experimental: Embodiment 1: Genotoxicity of an artificial gaseous pollutant (dimethyl sulfate) is detected by using the in-situ multi-toxicity endpoint detection system for volatile organic compounds (VOCs) constructed in the present application. Specific steps are as follows:
# In this embodiment, a Tenax TA multi-well polymer adsorbent is selected as the adsorption material to be filled in an adsorber of the atmospheric pre-concentrator, and a mixed liquid of 50% of ethanol and 50% of pure water is added to the gas-washing bottle and the high-temperature steam generator.
# (2) According to a detection requirement in this embodiment, the quantity of the multi-well exposure tray that need to be loaded is 6, 29 types of hydrogel microspheres fixed with recombined Escherichia coli carrying plasmids with different gene pathway are provided, and the quantity of each type of hydrogel microspheres fixed with microorganisms that need to be used is 15. An initial fluorescence intensity of each hydrogel microsphere is detected and recorded, and the hydrogel microspheres are placed in the multi-well exposure tray, the multi-well exposure tray is loaded into the exposure device, and the detection system is sealed. […]
# [5] = 0.25 h, gaseous exposure, 15 min, 0.5 L/min, read-out: IC50 (15 min) Gaseous
# [6] = 0.5 h, gaseous exposure, 30 min, 0.5 L/min, read-out: IC50 (30 min) Gaseous
# [7] = 0.75 h, gaseous exposure, 45 min, 0.5 L/min, read-out: IC50 (45 min) Gaseous
# [8] = 1 h, gaseous exposure, 60 min, 0.5 L/min, read-out: IC50 (60 min) Gaseous
# [9] = 0.25 h, 15 min, read-out: IC50 (15 min) Liquid
# [10] = 0.5 h, 30 min, read-out: IC50 (30 min) Liquid
# [11] = 0.75 h, 45 min, read-out: IC50 (45 min) Liquid
# [12] = 1 h, 60 min, read-out: IC50 (60 min) Liquid
Structure (SMILES),IC50 (Vibrio fischeri [1]; [5]) [µg/mL],IC50 (Vibrio fischeri [1]; [6]) [µg/mL],IC50 (Vibrio fischeri [1]; [7]) [µg/mL],IC50 (Vibrio fischeri [1]; [8]) [µg/mL],IC50 (15 min) Ratio (Vibrio fischeri [1]),IC50 (30 min) Ratio (Vibrio fischeri [1]),IC50 (45 min) Ratio (Vibrio fischeri [1]),IC50 (60 min) Ratio (Vibrio fischeri [1]),IC50 (Vibrio fischeri [2]; [9]) [µg/mL],IC50 (Vibrio fischeri [2]; [10]) [µg/mL],IC50 (Vibrio fischeri [2]; [11]) [µg/mL],IC50 (Vibrio fischeri [2]; [12]) [µg/mL],also measured
CC=O [Acetaldehyde],2.12,1.29,0.83,0.49,302,450,699,1224,640,580,580,600,
CC(=O)CC(C)=O [Acetylacetone],0.28,0.19,0.13,0.11,1000,1316,2385,2273,280,250,310,250,
C=O [Formaldehyde],0.00481,0.00234,0.00181,0.00129,3395,6684,8519,11457,16.3,15.6,15.4,14.8,minimum detection limit (Vibrio fischeri [1]; gaseous exposure): 1.3 mg/m^3; minimum detection limit at concentration ratio of 10 times (Vibrio fischeri [3]): 0.13 mg/m^3
CCCCO [N-butyl alcohol],,,,,1705,2521,3472,4625,,,,,"IC50 (15 min) Gaseous (Vibrio fischeri [1]; gaseous exposure, 15 min, 0.5 L/min): 1.05 µg/mL; IC50 (30 min) Gaseous (Vibrio fischeri [1]; gaseous exposure, 30 min, 0.5 L/min): 0.73 µg/mL; IC50 (45 min) Gaseous (Vibrio fischeri [1]; gaseous exposure, 45 min, 0.5 L/min): 0.53 µg/mL; IC50 (60 min) Gaseous (Vibrio fischeri [1]; gaseous exposure, 60 min, 0.5 L/min): 0.40 µg/mL; IC50 (15 min) Liquid (Vibrio fischeri [2]; 15 min): 1790 µg/mL; IC50 (30 min) Liquid (Vibrio fischeri [2]; 30 min): 1840 µg/mL; IC50 (45 min) Liquid (Vibrio fischeri [2]; 45 min): 1840 µg/mL; IC50 (60 min) Liquid (Vibrio fischeri [2]; 60 min): 1850 µg/mL"
Oc1ccccc1 [Phenol],0.0689,0.0363,0.028,0.0202,3921,7991,11424,15818,270,290,320,320,minimum detection limit (Vibrio fischeri [1]; gaseous exposure): 20.31 mg/m^3; minimum detection limit at concentration ratio of 10 times (Vibrio fischeri [3]): 2.03 mg/m^3
c1ccncc1 [Pyridine],1.5,1.25,0.88,0.5,680,864,1295,2500,1020,1080,1140,1250,
COS(=O)(=O)OC [dimethyl sulfate],,,,,,,,,,,,,"gene pathways significantly upregulated (of 29 key gene pathways) [4]: Nine of these gene pathways are significantly upregulated; genotoxicity / toxicity effects indicated [4]: may cause inhibition of cell division, oxidative stress, protein stress, and severe DNA damage, mutation, and recombination"
